Here are results for 19 compounds from US9598440B2, “Inhibitors of IRAK4 activity” (MERCK SHARP & DOHME CORP., priority 2012, dated 2017).

Chain of IRAK4 (Q9NWZ3 whole entry): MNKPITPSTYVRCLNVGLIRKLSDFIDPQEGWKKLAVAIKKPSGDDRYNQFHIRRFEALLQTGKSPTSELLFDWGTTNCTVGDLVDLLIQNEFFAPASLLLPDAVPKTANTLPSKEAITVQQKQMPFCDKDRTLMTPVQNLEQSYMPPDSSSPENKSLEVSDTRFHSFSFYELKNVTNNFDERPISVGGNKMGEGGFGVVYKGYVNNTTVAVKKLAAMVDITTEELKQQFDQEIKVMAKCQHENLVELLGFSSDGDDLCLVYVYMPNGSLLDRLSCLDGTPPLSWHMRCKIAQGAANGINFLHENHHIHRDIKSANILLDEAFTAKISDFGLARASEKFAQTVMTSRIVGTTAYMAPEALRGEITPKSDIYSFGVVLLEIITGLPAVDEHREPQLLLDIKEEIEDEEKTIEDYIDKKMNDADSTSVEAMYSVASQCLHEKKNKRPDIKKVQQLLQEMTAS

This assay has as its target IRAK4 (Homo sapiens (Human), UniProt Q9NWZ3). Kind of assay: Determination of IRAK4 kinase activity (IMAP fluorescence polarization, phosphorylation of fluorescent peptide substrate). Type of assay: biochemical. Conditions: 0.5 nM GST tagged IRAK4, 100 nM peptide substrate RP7030, 100 μM ATP, 30 minutes at 25° C. On the procedure: The kinase activity of IRAK4 is determined by its ability to catalyze the phosphorylation of a fluorescent polypeptide substrate. The extent of phosphorylation is measured using IMAP technology (Molecular Devices) where the phosphorylated fluorescent substrate binds to the large M(III)-based nanoparticles which reduces the rotational speed of the substrate and thus increases its fluorescent polarization (FP).
Procedure: A 20 μl reaction mixture contains 10 mM TriHCl, pH 7.2, 0.5 nM GST tagged IRAK4 (SignalChem), 100 nM fluorescent peptide substrate (RP7030, Molecular Devices), 100 μM ATP, 1 mM DTT, 1 mM MgCl2, and 0.01% Tween 20. The reaction is initiated by the addition of ATP. After incubation for 30 minutes at 25° C., 60 μl of Progressive IMAP Reagent (Molecular Devices) is added to stop the reaction. Change in RP7030's FP is determined by a FP reader (Analyst HT, LJL BioSystems). Analytical LCMS Conditions: • Condition A: Phenomenex Luna C18 (4.6×250 mm), 95:5 to 5:95 water:MeCN (0.05% TFA), over 10 min, hold 6 min. • Condition B: Agilent SBC (3.0×50 mm), solvent A: H20-0.1% TFA; • solvent B: ACN-0.1% TFA; GRADIENT TABLE: 0 min:10% B, 0.3 min: 10% B, 1.5 min: 95% B, 2.70 min: 95% B, 2.76 min: 10% B, stop time 3.60 min.
`CO[C@@H]1[C@H](O)[C@@H](CO)C[C@H]1Nc1cc(Nc2cc(C)nc(C)c2)ncc1-c1nc2ccccc2s1` [Example 156, (1R,2S,3R,5R)-3-((5-(benzo[d]thiazol-2-yl)-2-((2,6-dimethylpyridin-4-yl)amino)pyridin-4-yl)amino)-5-(hydroxymethyl)-2-methoxycyclopentanol] returned a concentration for half-maximal inhibition (IC50) of 83 nM. Next, `COc1cc(Nc2ncc(-c3ccc4ccccc4n3)c(N[C@@H]3CC(C(C)(C)O)[C@@H](O)[C@H]3O)n2)ccn1` (stereo in doubt) [Example 112, 6-(((1R,2S,3R,4R)-2,3-dihydroxy-4-(2-hydroxypropan-2-yl)cyclopentyl)amino)-2-((2-methoxypyridin-4-yl)amino)-5-(quinolin-2-yl)pyrimidine]: 4 nM.

On to `CC(C)(O)[C@H]1C[C@@H](Nc2nc(Nc3cccc(C(N)=O)c3)ncc2-c2nc3ccccc3s2)[C@H](O)[C@@H]1O` [Example 129, 3-((5-(benzo[d]thiazol-2-yl)-4-(((1R,2S,3R,4S)-2,3-dihydroxy-4-(2-hydroxypropan-2-yl)cyclopentyl)amino)pyrimidin-2-yl)amino)benzamide], for which 1.4 nM corresponded to half-maximal inhibition (IC50). Against the preceding compound, the IC50 is about 2.9-fold lower. The compound `Cc1cc(Nc2ncc(-c3nc4ccccc4s3)c(N[C@@H]3C[C@H](CF)[C@@H](O)[C@H]3O)n2)cc(C)n1` [Example 144, (1R,2S,3R,5S)-3-((5-benzo[d]thiazol-2-yl)-2-((2,6-dimethylpyridin-4-yl)amino-pyrimidin-4-yl)amino)-5-(fluoromethyl)cyclopentane-1,2-diol] gave an IC50 of 3 nM.

`CO[C@@H]1[C@H](O)[C@@H](CO)C[C@H]1Nc1nc(Nc2cc(C)nc(C)c2)ncc1-c1nc2ccccc2s1` [Example 140, (1R,2S,3R,5R)-3-((5-(benzo[d]thiazol-2-yl)-2-((2,6-dimethylpyridin-4-yl)amino)pyrimidin-4-yl)amino)-5-(hydroxymethyl)-2-methoxycyclopentanol]: the concentration for half-maximal inhibition (IC50) is 9 nM.

Compound `NC(=O)Cc1ccc(Nc2ncc(-c3nc4ccccc4s3)c(N[C@@H]3C[C@H](CO)[C@@H](O)[C@H]3O)n2)cc1` [Example 29, 2-(4-((5-(benzo[d]thiazol-2-yl)-4-(((1R,2S,3R,4R)-2,3-dihydroxy-4-(hydroxymethyl)cyclopentyl)amino)pyrimidin-2-yl)amino)phenyl)acetamide] registered a 50% inhibitory concentration (IC50) of 10 nM. This IC50 and that of the compound before are within 1.5-fold of each other.

The compound `CO[C@@H]1[C@H](O)[C@@H](C(C)(C)O)C[C@H]1Nc1nc(Nc2cc(C)nc(C)c2)ncc1-c1nc2ccccc2s1` [Example 149, (1R,2S,3R,5S)-3-((5-(benzo[d]thiazol-2-yl)-2-((2,6-dimethylpyridin-4-yl)amino)pyrimidin-4-yl)amino)-5-(2-hydroxypropan-2-yl)-2-methoxycyclopentanol] registered a half-maximal inhibitory concentration (IC50) of 2.2 nM. Regarding `CC(C)(O)[C@H]1C[C@@H](Nc2cc(NC3CCC3)ncc2-c2nc3ccccc3s2)[C@H](O)[C@@H]1O` [Example 161, (1R,2S,3R,5S)-3-((5-(benzo[d]thiazol-2-yl)-2-(cyclobutylamino)pyridin-4-yl)amino)-5-(2-hydroxypropan-2-yl)cyclopentane-1,2-diol], the IC50 worked out at 890 nM. Next, `Cc1nc(NC2CC2)nc(N[C@@H]2C[C@H](CO)[C@@H](O)[C@H]2O)c1-c1nc2ccccc2s1` [Example 90, (1R,2S,3R,5R)-3-((5-(benzo[d]thiazol-2-yl)-2-(cyclopropylamino)-6-methylpyrimidin-4-yl)amino)-5-(hydroxymethyl)cyclopentane-1,2-diol]: 5030 nM; `OC[C@H]1C[C@@H](Nc2nc(Nc3ccc4cc[nH]c4c3)ncc2-c2nc3ccccc3s2)[C@H](O)[C@@H]1O` [Example 24, (1R,2S,3R,5R)-3-((2-((1H-indol-6-yl)amino)-5-(benzo[d]thiazol-2-yl)pyrimidin-4-yl)amino)-5-(hydroxymethyl)cyclopentane-1,2-diol]: 22 nM; `OC[C@H]1C[C@@H](Nc2nc(Nc3cccc(F)c3)ncc2-c2nc3ccccc3s2)[C@H](O)[C@@H]1O` [Example 13, (1R,2S,3R,5R)-3-((5-(benzo[d]thiazol-2-yl)-2-((3-fluorophenyl)amino)pyrimidin-4-yl)amino)-5-(hydroxymethyl)cyclopentane-1,2-diol]: 62 nM. Turning to `COC[C@H]1C[C@@H](Nc2nc(Nc3ccnc(OC)c3)ncc2-c2nc3ccccc3s2)[C@H](O)[C@@H]1O` [Example 143, (1R,2S,3R,5R)-3-((5-(benzo[d]thiazol-2-yl)-2-((2-methoxypyridin-4-yl)amino)pyrimidin-4-yl)amino)-5-(methoxymethyl)cyclopentane-1,2-diol], inhibition was half-maximal at 95 nM (IC50). Against the preceding compound, the IC50 is about 1.5-fold higher. Compound `Nc1ncc(-c2nc3ccccc3s2)c(N[C@@H]2C[C@H](CO)[C@@H](O)[C@@H]2F)n1` [Example 145, (1R,2R,3R,5R)-3-((2-amino-5-(benzo[d]thiazol-2-yl)pyrimidin-4-yl)amino)-2-fluoro-5-(hydroxymethyl)cyclopentanol] showed an IC50 of 1330 nM. Take `OC[C@H]1C[C@@H](Nc2nc(NC3COC3)ncc2-c2ccc3ccccc3n2)[C@H](O)[C@@H]1O` [Example 57, 6-(((1R,2S,3R,4R)-2,3-dihydroxy-4-(hydroxymethyl)cyclopentyl)amino)-2-(oxetan-3-ylamino)-5-(quinolin-2-yl)pyrimidine]: the IC50 was found to be 10600 nM. Next, `Cc1cc(Nc2nc(C)c(-c3nc4ccccc4s3)c(N[C@@H]3C[C@H](C(C)(C)O)[C@@H](O)[C@H]3O)n2)cc(C)n1` [Example 107, 5-(benzo[d]thiazol-2-yl)-6-(((1R,2S,3R,4S)-2,3-dihydroxy-4-(2-hydroxypropan-2-yl)cyclopentyl)amino)-2-((2,6-dimethylpyridin-4-yl)amino)-4-methylpyrimidine]: 8 nM; `Cc1cc(Nc2ncc(-c3nc4c(C)nccc4s3)c(N[C@@H]3CC(C(C)(C)O)[C@@H](O)[C@H]3O)n2)cc(C)n1` (stereo in doubt) [Example 138, 6-(((1R,2S,3R,4R)-2,3-dihydroxy-4-(2-hydroxypropan-2-yl)cyclopentyl)amino)-2-((2,6-dimethylpyridin-4-yl)amino)-5-(4-methylthiazolo[4,5-c]pyridin-2-yl)pyrimidine]: 0.5 nM; `Cc1cc(Nc2ncc(-c3nc4ccccc4s3)c(N[C@H]3C[C@@H](CO)[C@H](O)[C@@H]3O)n2)cc(C)n1` [Example 108, 5-(benzo[d]thiazol-2-yl)-6-(((1S,2R,3 S,4S)-2,3-dihydroxy-4-(hydroxymethyl)cyclopentyl)amino)-2-((2,6-dimethylpyridin-4-yl)amino)pyrimidine]: 384 nM. In the case of `CN1CCC(Nc2ncc(-c3nc4ccccc4s3)c(N[C@@H]3C[C@H](CO)[C@@H](O)[C@H]3O)n2)CC1` [Example 53, (1R,2S,3R,5R)-3-((5-(benzo[d]thiazol-2-yl)-2-((1-methylpiperidin-4-yl)amino)pyrimidin-4-yl)amino)-5-(hydroxymethyl)cyclopentane-1,2-diol] it was 2650 nM; in that of `COc1cccc(Nc2ncc(-c3nc4ccccc4s3)c(N[C@@H]3C[C@H](CO)[C@@H](O)[C@H]3O)n2)c1` [Example 4, (1R,2S,3R,5R)-3-((5-(benzo[d]thiazol-2-yl)-2-((3-methoxyphenyl)amino)pyrimidin-4-yl)amino)-5-(hydroxymethyl)cyclopentane-1,2-diol], 137 nM.
